Assay results as given in PubChem BioAssay AID1259407 (Chemical Carcinogenesis Research Information System (CCRIS), 2018).
Active and inactive are the calls of the source. No rule for the calls is given here.

Test system: CCRIS mutagenicity, Ames/micronucleus/aberration tests
Test: CCRIS mutagenicity studies
[1] = Test System: AMES SALMONELLA TYPHIMURIUM, Strain/Indicator: TA98, Metabolic Activation: RAT, LIVER, S-9, AROCLOR 1254, Method: STANDARD PLATE
[2] = Test System: AMES SALMONELLA TYPHIMURIUM, Strain/Indicator: TA100, Metabolic Activation: RAT, LIVER, S-9, AROCLOR 1254, Method: STANDARD PLATE
[3] = Test System: AMES SALMONELLA TYPHIMURIUM, Strain/Indicator: TA102, Metabolic Activation: NONE, Method: STANDARD PLATE
[4] = Test System: AMES SALMONELLA TYPHIMURIUM, Strain/Indicator: TA1535, Metabolic Activation: NONE, Method: STANDARD PLATE
[5] = Test System: AMES SALMONELLA TYPHIMURIUM, Strain/Indicator: TA1535, Metabolic Activation: RAT, LIVER, S-9, AROCLOR 1254, Method: STANDARD PLATE
[6] = Test System: AMES SALMONELLA TYPHIMURIUM, Strain/Indicator: TA1538, Metabolic Activation: NONE, Method: STANDARD PLATE
[7] = Test System: AMES SALMONELLA TYPHIMURIUM, Strain/Indicator: TA1538, Metabolic Activation: RAT, LIVER, S-9, AROCLOR 1254, Method: STANDARD PLATE
[8] = Test System: AMES SALMONELLA TYPHIMURIUM, Strain/Indicator: TA98, Metabolic Activation: NONE, Method: PREINCUBATION
[9] = Test System: AMES SALMONELLA TYPHIMURIUM, Strain/Indicator: TA100, Metabolic Activation: NONE, Method: PREINCUBATION
[10] = Test System: AMES SALMONELLA TYPHIMURIUM, Strain/Indicator: TA98, Metabolic Activation: NONE, Method: STANDARD PLATE
[11] = Test System: AMES SALMONELLA TYPHIMURIUM, Strain/Indicator: TA100, Metabolic Activation: NONE, Method: STANDARD PLATE

CN(C)C(=S)SSC(=S)N(C)C
mutagenic call (End Point: IN VIVO MICRONUCLEUS, Test System: BONE MARROW POLYCHROMATIC ERYTHROCYTES, Species: MOUSE, Strain/Sex: SWISS/MALE, FEMALE, Route: IP 2X IN AQUEOUS SUSPENSION WITHIN 24 HR): inactive; negative | mutagenic call [1]: active; positive | mutagenic call (Test System: AMES SALMONELLA TYPHIMURIUM, Strain/Indicator: TA98, Metabolic Activation: S-9, Method: STANDARD PLATE): inactive; negative | mutagenic call [2]: active; positive | mutagenic call (Test System: AMES SALMONELLA TYPHIMURIUM, Strain/Indicator: TA100, Metabolic Activation: S-9, Method: STANDARD PLATE): active; positive | mutagenic call [3]: inactive; negative | mutagenic call (Test System: AMES SALMONELLA TYPHIMURIUM, Strain/Indicator: TA102, Metabolic Activation: RAT, LIVER, S-9, AROCLOR 1254, Method: STANDARD PLATE): inactive; negative | mutagenic call (Test System: AMES SALMONELLA TYPHIMURIUM, Strain/Indicator: TA104, Metabolic Activation: NONE, Method: STANDARD PLATE): inactive; negative | mutagenic call (Test System: AMES SALMONELLA TYPHIMURIUM, Strain/Indicator: TA104, Metabolic Activation: RAT, LIVER, S-9, AROCLOR 1254, Method: STANDARD PLATE): inactive; negative | mutagenic call [4]: active; positive | mutagenic call [5]: active; positive | mutagenic call [6]: active; positive | mutagenic call [7]: active; positive | mutagenic call (Test System: CHINESE HAMSTER V-79, Strain/Indicator: V-79 (HGPRT)/6-THIOGUANINE, Metabolic Activation: NONE, Method: RESPREADING): active; positive

C/C(C(=O)O)=C(\Cl)C(=O)O
mutagenic call [8]: inactive; negative | mutagenic call [9]: inactive; negative | mutagenic call (Test System: AMES SALMONELLA TYPHIMURIUM, Strain/Indicator: TA104, Metabolic Activation: NONE, Method: PREINCUBATION): inactive; negative

O=C1c2ccccc2-c2c3c(cc4ccnc1c24)OCO3
mutagenic call [8]: inactive; negative | mutagenic call (Test System: AMES SALMONELLA TYPHIMURIUM, Strain/Indicator: TA98, Metabolic Activation: RAT, LIVER, S-9, PHENOBARBITAL AND BETA-NAPHTHOFLAVONE, Method: PREINCUBATION): active; positive | mutagenic call [9]: inactive; negative | mutagenic call (Test System: AMES SALMONELLA TYPHIMURIUM, Strain/Indicator: TA100, Metabolic Activation: RAT, LIVER, S-9, PHENOBARBITAL AND BETA-NAPHTHOFLAVONE, Method: PREINCUBATION): active; positive

Nc1nc2c([nH]c(=O)n2[C@@H]2O[C@H](CO)[C@@H](O)[C@H]2O)c(=O)[nH]1
mutagenic call [9]: inactive; negative

c1scc2c1-c1cscc1C1OC21 (centres undefined)
mutagenic call [10]: active; positive | mutagenic call [11]: active; positive

O=CC(=C(Cl)Cl)C(Cl)Cl
mutagenic call [11]: active; positive

COC[C@@H]1C=C2c3cccc4c3c(cn4C)C[C@H]2N(C)C1
mutagenic call [2]: active; positive

Nc1cccc2c1ccc1ccccc12
mutagenic call (Test System: AMES SALMONELLA TYPHIMURIUM, Strain/Indicator: TA98, Metabolic Activation: RAT, LIVER, S-9, AROCLOR 1254 (2 OR 4%), Method: STANDARD PLATE): active; positive | mutagenic call (Test System: AMES SALMONELLA TYPHIMURIUM, Strain/Indicator: TA100, Metabolic Activation: RAT, LIVER, S-9, AROCLOR 1254 (2%), Method: STANDARD PLATE): active; positive | mutagenic call (Test System: AMES SALMONELLA TYPHIMURIUM, Strain/Indicator: TA1535, Metabolic Activation: RAT, LIVER, S-9, AROCLOR 1254 (2%), Method: STANDARD PLATE): inactive; negative | mutagenic call (Test System: AMES SALMONELLA TYPHIMURIUM, Strain/Indicator: TA1537, Metabolic Activation: RAT, LIVER, S-9, AROCLOR 1254 (2%), Method: STANDARD PLATE): active; positive

O=C(O)/C=C/c1ccc([N+](=O)[O-])o1
mutagenic call [8]: active; positive

BrCc1c2ccccc2cc2ccc3ccccc3c12
mutagenic call [10]: active; positive | mutagenic call [11]: active; positive

Nc1cc(N)c(-c2ccccc2)c([N+](=O)[O-])c1
mutagenic call [8]: active; positive | mutagenic call (Test System: AMES SALMONELLA TYPHIMURIUM, Strain/Indicator: TA98, Metabolic Activation: RAT, LIVER, S-9, KANECHLOR 500, Method: PREINCUBATION): active; positive

COc1ccccc1NC(=O)c1csc([N+](=O)[O-])c1
mutagenic call [10]: active; positive | mutagenic call [11]: active; positive

C=C(C)C(=O)OCCOCCOCCOC(=O)C(=C)C
mutagenic call (Test System: AMES SALMONELLA TYPHIMURIUM, Strain/Indicator: TA97A, Metabolic Activation: NONE, Method: STANDARD PLATE): inactive; negative | mutagenic call (Test System: AMES SALMONELLA TYPHIMURIUM, Strain/Indicator: TA97A, Metabolic Activation: RAT, LIVER, S-9, PHENOBARBITAL AND BETA-NAPHTHAFLAVONE, Method: STANDARD PLATE): inactive; negative | mutagenic call [10]: inactive; negative | mutagenic call (Test System: AMES SALMONELLA TYPHIMURIUM, Strain/Indicator: TA98, Metabolic Activation: RAT, LIVER, S-9, PHENOBARBITAL AND BETA-NAPHTHAFLAVONE, Method: STANDARD PLATE): inactive; negative | mutagenic call [11]: inactive; negative | mutagenic call (Test System: AMES SALMONELLA TYPHIMURIUM, Strain/Indicator: TA100, Metabolic Activation: RAT, LIVER, S-9, PHENOBARBITAL AND BETA-NAPHTHAFLAVONE, Method: STANDARD PLATE): inactive; negative | mutagenic call [3]: inactive; negative | mutagenic call (Test System: AMES SALMONELLA TYPHIMURIUM, Strain/Indicator: TA102, Metabolic Activation: RAT, LIVER, S-9, PHENOBARBITAL AND BETA-NAPHTHAFLAVONE, Method: STANDARD PLATE): inactive; negative | mutagenic call (Test System: CHINESE HAMSTER V-79, Strain/Indicator: V-79 (HPRT)/6-THIOGUANINE, Metabolic Activation: NONE): active; positive | mutagenic call (Test System: CHINESE HAMSTER V-79, Strain/Indicator: V-79 (HPRT)/6-THIOGUANINE, Metabolic Activation: R, L, S-9, PHENOBARBITAL AND BETA-NAPHTHOFLAVONE): inactive; negative

Nc1ccc(S(=O)(=O)Nc2nccs2)cc1
mutagenic call (Test System: AMES SALMONELLA TYPHIMURIUM, Strain/Indicator: TA98, Metabolic Activation: HAMSTER, LIVER, S-9, AROCLOR 1254, Method: STANDARD PLATE): inactive; negative | mutagenic call [10]: inactive; negative | mutagenic call [1]: inactive; negative | mutagenic call (Test System: AMES SALMONELLA TYPHIMURIUM, Strain/Indicator: TA100, Metabolic Activation: HAMSTER, LIVER, S-9, AROCLOR 1254, Method: STANDARD PLATE): inactive; negative | mutagenic call [11]: inactive; negative | mutagenic call [2]: inactive; negative | mutagenic call (Test System: AMES SALMONELLA TYPHIMURIUM, Strain/Indicator: TA1535, Metabolic Activation: HAMSTER, LIVER, S-9, AROCLOR 1254, Method: STANDARD PLATE): inactive; negative | mutagenic call [4]: inactive; negative | mutagenic call [5]: inactive; negative | mutagenic call (Test System: AMES SALMONELLA TYPHIMURIUM, Strain/Indicator: TA1537, Metabolic Activation: HAMSTER, LIVER, S-9, AROCLOR 1254, Method: STANDARD PLATE): inactive; negative | mutagenic call (Test System: AMES SALMONELLA TYPHIMURIUM, Strain/Indicator: TA1537, Metabolic Activation: NONE, Method: STANDARD PLATE): inactive; negative | mutagenic call (Test System: AMES SALMONELLA TYPHIMURIUM, Strain/Indicator: TA1537, Metabolic Activation: RAT, LIVER, S-9, AROCLOR 1254, Method: STANDARD PLATE): inactive; negative | mutagenic call (Test System: AMES SALMONELLA TYPHIMURIUM, Strain/Indicator: TA1538, Metabolic Activation: HAMSTER, LIVER, S-9, AROCLOR 1254, Method: STANDARD PLATE): inactive; negative | mutagenic call [6]: inactive; negative | mutagenic call [7]: inactive; negative | mutagenic call (Test System: MOUSE LYMPHOMA, Strain/Indicator: L5178Y (TK+/TK-), Metabolic Activation: NONE, Method: SUSPENSION/PLATE): inactive; negative. reevaluation of results: negative | mutagenic call (Test System: MOUSE LYMPHOMA, Strain/Indicator: L5178Y (TK+/TK-), Metabolic Activation: RAT, LIVER, S-9, AROCLOR 1254, Method: SUSPENSION/PLATE): inactive; negative. reevaluation of results: negative
